The values that follow are results of earlier work, collected in patent US20080085892A1, “Liquid dosage form of acetaminophen” (priority 2006, published 2008).

For `COc1ccccc1OCC(O)CO` (centres unmarked) [Guaifenesin, 3-(2-methoxyphenoxy)-1,2-propanediol], the solubility in water result was “about 5 % wt” and the “solubility in water (in words)” value is “slightly soluble”.
